The results in this text go back to publication PMC5218480 (PLoS ONE, 2017).

In the test the test system is MV-4-11 cells. The test is described as follows: Gene expression microarray analysis (Affymetrix PrimeView) and GSEA. It is filed as cell-based, human. As to conditions: gene FGFR1OP; Azacitidine vs DMSO; LIST F. On the set-up: RFU PODN (11730768_x_at) / Fold change /veh PODN (11730768_x_at) / RFU LINC00158 (11744669_a_at) / Fold change /veh LINC00158 (11744669_a_at) / RFU DUSP10 (11751237_a_at) / Fold change /veh DUSP10 (11751237_a_at) / RFU ID3 (11757404_x_at) / Fold change /veh ID3 (11757404_x_at) / RFU PLEKHG5 (11737974_s_at) / Fold change /veh PLEKHG5 (11737974_s_at) / RFU LRRC4B (11730491_at) / Fold change /veh LRRC4B (11730491_at) / RFU GIMAP4 (11747438_a_at) / Fold change /veh GIMAP4 (11747438_a_at) / RFU KRT8 (11758183_x_at) / Fold change /veh KRT8 (11758183_x_at) / RFU CNN1 (11734310_a_at) / Fold change /veh CNN1 (11734310_a_at) / RFU VPS37D (11726825_at) / Fold change /veh VPS37D (11726825_at) / RFU C10orf10 (11716522_x_at) / Fold change /veh C10orf10 (11716522_x_at) / RFU KIR2DL2 /// KIR2DL4 /// KIR2DL5A /// KIR2DL5B /// KIR2DS1 /// KIR2DS2 /// KIR2DS3 /// KIR2DS4 /// KIR3DL3 /// KIR3DL3 /// KIR3DS1 (11738374_at) / Fold change /veh KIR2DL2 /// KIR2DL4 /// KIR2DL5A /// KIR2DL5B /// KIR2DS1 /// KIR2DS2 /// KIR2DS3 /// KIR2DS4 /// KIR3DL3 /// KIR3DL3 /// KIR3DS1 (11738374_at) / RFU C1QL1 (11718748_at) / Fold change /veh C1QL1 (11718748_at) / RFU TMPRSS4 (11747572_a_at) / Fold change /veh TMPRSS4 (11747572_a_at) / RFU HAMP (11756126_x_at) / Fold change /veh HAMP (11756126_x_at) / RFU RNFT2 (11725882_a_at) / Fold change /veh RNFT2 (11725882_a_at) / RFU NR4A2 (11747474_a_at) / Fold change /veh NR4A2 (11747474_a_at) / RFU ABCC12 (11746883_a_at) / Fold change /veh ABCC12 (11746883_a_at) / RFU TMEM136 (11760407_x_at) / Fold change /veh TMEM136 (11760407_x_at) / RFU CLDN22 /// WWC2 (11732394_at) / Fold change /veh CLDN22 /// WWC2 (11732394_at) / RFU HLA-DPB1 (11760878_x_at) / Fold change /veh HLA-DPB1 (11760878_x_at) / RFU SPINT1 (11716480_a_at) / Fold change /veh SPINT1 (11716480_a_at) / RFU GAP43 (11754022_s_at) / Fold change /veh GAP43 (11754022_s_at) / RFU A4GNT (11735810_at) / Fold change /veh A4GNT (11735810_at) / RFU PRB3 (11715151_x_at) / Fold change /veh PRB3 (11715151_x_at) / RFU TUBB4B (11761932_at) / Fold change /veh TUBB4B (11761932_at) / RFU CAPN14 (11732068_a_at) / Fold change /veh CAPN14 (11732068_a_at) / RFU TMCC2 (11721928_a_at) / Fold change /veh TMCC2 (11721928_a_at) / RFU IRGQ (11745062_a_at) / Fold change /veh IRGQ (11745062_a_at) / RFU FAM174B (11720279_a_at) / Fold change /veh FAM174B (11720279_a_at) / RFU TMPRSS4 (11748680_a_at) / Fold change /veh TMPRSS4 (11748680_a_at) / RFU FAM212B (11763350_a_at) / Fold change /veh FAM212B (11763350_a_at) / RFU PLEKHG5 (11743358_a_at) / Fold change /veh PLEKHG5 (11743358_a_at) / RFU ZSCAN30 (11745921_a_at) / Fold change /veh ZSCAN30 (11745921_a_at) / RFU CMKLR1 (11741424_a_at) / Fold change /veh CMKLR1 (11741424_a_at) / RFU LOC101060620 /// MAPK8IP1 (11723275_at) / Fold change /veh LOC101060620 /// MAPK8IP1 (11723275_at) / RFU SPTSSB (11747773_x_at) / Fold change /veh SPTSSB (11747773_x_at) / RFU PRSS12 (11739890_at) / Fold change /veh PRSS12 (11739890_at) / RFU BIN1 (11741810_x_at) / Fold change /veh BIN1 (11741810_x_at) / RFU WNT11 (11732464_a_at) / Fold change /veh WNT11 (11732464_a_at) / RFU C10orf10 (11716521_a_at) / Fold change /veh C10orf10 (11716521_a_at) / RFU C5orf56 (11738089_at) / Fold change /veh C5orf56 (11738089_at) / RFU CYB561 (11721691_x_at) / Fold change /veh CYB561 (11721691_x_at) / RFU ANKRD19P (11752326_a_at) / Fold change /veh ANKRD19P (11752326_a_at) / RFU OR2T12 /// OR2T33 /// OR2T8 (11738714_s_at) / Fold change /veh OR2T12 /// OR2T33 /// OR2T8 (11738714_s_at) / RFU VCAN (11748164_a_at) / Fold change /veh VCAN (11748164_a_at) / RFU JSRP1 (11732532_at) / Fold change /veh JSRP1 (11732532_at) / RFU KRTAP10-11 (11738290_x_at) / Fold change /veh KRTAP10-11 (11738290_x_at) / RFU MYO3A (11730013_a_at) / Fold change /veh MYO3A (11730013_a_at) / RFU EBF3 (11725865_a_at) / Fold change /veh EBF3 (11725865_a_at) / RFU CAMK2N1 (11719241_x_at) / Fold change /veh CAMK2N1 (11719241_x_at) / RFU C5orf56 (11738088_a_at) / Fold change /veh C5orf56 (11738088_a_at) / RFU OLFML3 (11715873_a_at) / Fold change /veh OLFML3 (11715873_a_at) / RFU LOC100653217 /// NTM (11731650_a_at) / Fold change /veh LOC100653217 /// NTM (11731650_a_at) / RFU MAPK11 (11762145_a_at) / Fold change /veh MAPK11 (11762145_a_at) / RFU FIZ1 (11724087_x_at) / Fold change /veh FIZ1 (11724087_x_at) / RFU OASL (11726364_x_at) / Fold change /veh OASL (11726364_x_at) / RFU SOX15 (11748057_x_at) / Fold change /veh SOX15 (11748057_x_at) / RFU CD79A (11719716_a_at) / Fold change /veh CD79A (11719716_a_at) / RFU HIST1H1D (11736915_at) / Fold change /veh HIST1H1D (11736915_at) / RFU CASKIN2 (11723855_a_at) / Fold change /veh CASKIN2 (11723855_a_at) / RFU LOC730098 (11760151_x_at) / Fold change /veh LOC730098 (11760151_x_at) / RFU OR4N2 (11742367_at) / Fold change /veh OR4N2 (11742367_at) / RFU PRRT2 (11749266_a_at) / Fold change /veh PRRT2 (11749266_a_at) / RFU SNX32 (11753110_a_at) / Fold change /veh SNX32 (11753110_a_at) / RFU CDHR5 (11726645_a_at) / Fold change /veh CDHR5 (11726645_a_at) / RFU RCAN1 (11760418_a_at) / Fold change /veh RCAN1 (11760418_a_at) / RFU FAM167A (11723789_a_at) / Fold change /veh FAM167A (11723789_a_at) / RFU FAM26E (11764081_at) / Fold change /veh FAM26E (11764081_at) / RFU ISYNA1 (11749810_s_at) / Fold change /veh ISYNA1 (11749810_s_at) / RFU ACY1 (11761880_at) / Fold change /veh ACY1 (11761880_at) / RFU 11764098_at / Fold change /veh 11764098_at / RFU SAMD14 (11745864_x_at) / Fold change /veh SAMD14 (11745864_x_at) / RFU NPB (11741838_a_at) / Fold change /veh NPB (11741838_a_at) / RFU TMPRSS6 (11731388_a_at) / Fold change /veh TMPRSS6 (11731388_a_at) / RFU KRTAP10-2 (11738614_at) / Fold change /veh KRTAP10-2 (11738614_at) / RFU ARHGAP8 /// PRR5-ARHGAP8 (11727945_x_at) / Fold change /veh ARHGAP8 /// PRR5-ARHGAP8 (11727945_x_at) / RFU KRTAP5-7 /// NADSYN1 (11734609_at) / Fold change /veh KRTAP5-7 /// NADSYN1 (11734609_at) / RFU RASL12 (11751679_a_at) / Fold change /veh RASL12 (11751679_a_at) / RFU CDKN2B (11736163_a_at) / Fold change /veh CDKN2B (11736163_a_at) / RFU PRF1 (11729649_at) / Fold change /veh PRF1 (11729649_at) / RFU, ZNF638 /// ZNF638-IT1 / Fold change vs veh, ZNF638 /// ZNF638-IT1 / RFU, PANK3 / Fold change vs veh, PANK3 / RFU, SH3YL1 / Fold change vs veh, SH3YL1 / RFU, ZEB2 / Fold change vs veh, ZEB2 / RFU, NRIP1 / Fold change vs veh, NRIP1 / RFU, PTTG1IP / Fold change vs veh, PTTG1IP / RFU, CAPN2 / Fold change vs veh, CAPN2 / RFU, MED14 / Fold change vs veh, MED14 / RFU, SNORA58 / Fold change vs veh, SNORA58 / RFU, C1orf63 / Fold change vs veh, C1orf63 / RFU, LRRFIP1 / Fold change vs veh, LRRFIP1 / RFU, NDUFAF7 / Fold change vs veh, NDUFAF7 / RFU, SLC12A2 / Fold change vs veh, SLC12A2 / RFU, IBTK / Fold change vs veh, IBTK / RFU, ESF1 / Fold change vs veh, ESF1 / Fold change vs veh, TMEM50B / RFU, TAOK1 / Fold change vs veh, TAOK1 / RFU, ACBD3 / Fold change vs veh, ACBD3 / RFU, TMA16 / Fold change vs veh, TMA16 / RFU, RWDD3 / Fold change vs veh, RWDD3 / RFU, BCAT1 / Fold change vs veh, BCAT1 / RFU, EDEM3 / Fold change vs veh, EDEM3 / RFU, TMEM33 / Fold change vs veh, TMEM33 / RFU, WDR75 / Fold change vs veh, WDR75 / RFU, AHCTF1 / Fold change vs veh, AHCTF1 / RFU, TFRC / Fold change vs veh, TFRC / RFU, ZDHHC17 / Fold change vs veh, ZDHHC17 / RFU, NOM1 / Fold change vs veh, NOM1 / RFU, ARL8B / Fold change vs veh, ARL8B / RFU, ZBTB11 / Fold change vs veh, ZBTB11 / RFU, TAMM41 / Fold change vs veh, TAMM41 / RFU, KIAA1704 /// LOC100996395 / Fold change vs veh, KIAA1704 /// LOC100996395 / RFU, ING1 / Fold change vs veh, ING1 / RFU, TRMT61B / Fold change vs veh, TRMT61B / RFU, FUBP3 / Fold change vs veh, FUBP3 / RFU, TP53 / Fold change vs veh, TP53 / RFU, TNKS2 / Fold change vs veh, TNKS2 / RFU, ZFP14 / Fold change vs veh, ZFP14 / RFU, ACTR2 / Fold change vs veh, ACTR2 / RFU, PPP3R1 / Fold change vs veh, PPP3R1 / RFU, PIK3R1 / Fold change vs veh, PIK3R1 / RFU, HNRNPA1 / Fold change vs veh, HNRNPA1 / RFU, RNF170 / Fold change vs veh, RNF170 / RFU, ZNF28 / Fold change vs veh, ZNF28 / RFU, RNGTT / Fold change vs veh, RNGTT / RFU, OGT / Fold change vs veh, OGT / RFU, BRD1 / Fold change vs veh, BRD1 / RFU, MARS / Fold change vs veh, MARS / RFU, ZNF655 / Fold change vs veh, ZNF655 / RFU, FAHD1 / Fold change vs veh, FAHD1 / RFU, BDP1 / Fold change vs veh, BDP1 / RFU, LRRCC1 / Fold change vs veh, LRRCC1 / RFU, ARID1A / Fold change vs veh, ARID1A / RFU, ZNF146 / Fold change vs veh, ZNF146 / RFU, ZNF330 / Fold change vs veh, ZNF330 / RFU, GPN3 / Fold change vs veh, GPN3 / RFU, C9orf123 / Fold change vs veh, C9orf123 / RFU, N4BP2L2 / Fold change vs veh, N4BP2L2 / RFU, ARFIP1 / Fold change vs veh, ARFIP1 / RFU, FAM179B / Fold change vs veh, FAM179B / RFU, BCL10 / Fold change vs veh, BCL10 / RFU, UHRF1BP1L / Fold change vs veh, UHRF1BP1L / RFU, BET1 / Fold change vs veh, BET1 / RFU, CNOT2 / Fold change vs veh, CNOT2 / RFU, ZNF268 / Fold change vs veh, ZNF268 / Fold change vs veh, ZNF507 / RFU, DGCR2 / Fold change vs veh, DGCR2 / RFU, WDSUB1 / Fold change vs veh, WDSUB1 / Fold change vs veh, HSP90B1 /// MIR3652 / RFU, ADSS / Fold change vs veh, ADSS / RFU, GK / Fold change vs veh, GK / RFU, ZNF148 / Fold change vs veh, ZNF148 / RFU, TAF9 / Fold change vs veh, TAF9 / RFU, SLC1A5 / Fold change vs veh, SLC1A5 / RFU, SLMO2 / Fold change vs veh, SLMO2 / RFU, ABCC4 / Fold change vs veh, ABCC4 / RFU, LOC101060439 /// RAP1B / Fold change vs veh, LOC101060439 /// RAP1B / RFU, RFX7 / Fold change vs veh, RFX7 / RFU, GTPBP10 / Fold change vs veh, GTPBP10 / RFU, CNEP1R1 / Fold change vs veh, CNEP1R1 / RFU, BIVM-ERCC5 /// ERCC5 / Fold change vs veh, BIVM-ERCC5 /// ERCC5 / RFU, ILF3 / Fold change vs veh, ILF3 / RFU 11762660_at / Fold change /veh 11762660_at / RFU VCAN (11757783_s_at) / Fold change /veh VCAN (11757783_s_at) / RFU DDX43 (11728927_at) / Fold change /veh DDX43 (11728927_at) / RFU KRT8 (11758188_x_at) / Fold change /veh KRT8 (11758188_x_at) / RFU NKD1 (11759106_at) / Fold change /veh NKD1 (11759106_at) / RFU SRD5A1 (11742802_a_at) / Fold change /veh SRD5A1 (11742802_a_at) / RFU TPSAB1 /// TPSB2 (11721975_s_at) / Fold change /veh TPSAB1 /// TPSB2 (11721975_s_at) / RFU GSTM3 (11746129_a_at) / Fold change /veh GSTM3 (11746129_a_at) / RFU IL23R (11737362_x_at) / Fold change /veh IL23R (11737362_x_at) / RFU TMEM51 (11727254_a_at) / Fold change /veh TMEM51 (11727254_a_at) / RFU PIWIL2 (11732686_x_at) / Fold change /veh PIWIL2 (11732686_x_at) / RFU ORM1 (11744905_x_at) / Fold change /veh ORM1 (11744905_x_at) / RFU CCDC152 (11743942_at) / Fold change /veh CCDC152 (11743942_at) / RFU ECM1 (11717891_a_at) / Fold change /veh ECM1 (11717891_a_at) / RFU IL23R (11748794_a_at) / Fold change /veh IL23R (11748794_a_at) / RFU TNFAIP8L3 (11732012_x_at) / Fold change /veh TNFAIP8L3 (11732012_x_at) / RFU MBOAT4 (11741988_at) / Fold change /veh MBOAT4 (11741988_at) / RFU 11764193_at / Fold change /veh 11764193_at / RFU TMEM53 (11763286_at) / Fold change /veh TMEM53 (11763286_at) / RFU MAGEB2 (11727129_at) / Fold change /veh MAGEB2 (11727129_at) / RFU TMEM200A (11744735_a_at) / Fold change /veh TMEM200A (11744735_a_at) / RFU CCDC152 (11751479_a_at) / Fold change /veh CCDC152 (11751479_a_at) / RFU FAM211A (11726209_a_at) / Fold change /veh FAM211A (11726209_a_at) / RFU RGS16 (11746705_a_at) / Fold change /veh RGS16 (11746705_a_at) / RFU VCAN (11755009_s_at) / Fold change /veh VCAN (11755009_s_at) / RFU RHOB (11743442_s_at) / Fold change /veh RHOB (11743442_s_at) / RFU RGS16 (11720943_a_at) / Fold change /veh RGS16 (11720943_a_at) / RFU RGS16 (11720944_at) / Fold change /veh RGS16 (11720944_at) / RFU, VPS4B / Fold change vs veh, VPS4B / RFU, CREB1 / Fold change vs veh, CREB1 / RFU, DNAJC13 / Fold change vs veh, DNAJC13 / RFU, GNAQ / Fold change vs veh, GNAQ / RFU, CDK5R1 / Fold change vs veh, CDK5R1 / RFU, ZRANB3 / Fold change vs veh, ZRANB3 / RFU, CUL4A / Fold change vs veh, CUL4A / RFU, CCNY / Fold change vs veh, CCNY / RFU, UFL1 / Fold change vs veh, UFL1 / RFU, COG3 / Fold change vs veh, COG3 / RFU, DIAPH2 / Fold change vs veh, DIAPH2 / RFU, SKA2 / Fold change vs veh, SKA2 / RFU, AFF3 / Fold change vs veh, AFF3 / RFU, LMF1 / Fold change vs veh, LMF1 / RFU, IPO11 / Fold change vs veh, IPO11 / RFU, DFFB / Fold change vs veh, DFFB / RFU, FOXP1 / Fold change vs veh, FOXP1 / RFU, CARD8 / Fold change vs veh, CARD8 / RFU, STRN3 / Fold change vs veh, STRN3 / RFU, ADK / Fold change vs veh, ADK / RFU, RASSF2 / Fold change vs veh, RASSF2 / RFU, WIPF1 / Fold change vs veh, WIPF1 / RFU, LARP1B / Fold change vs veh, LARP1B / RFU, RASA1 / Fold change vs veh, RASA1 / RFU, RB1 / Fold change vs veh, RB1 / RFU, PPFIA1 / Fold change vs veh, PPFIA1 / RFU, MAT2A / Fold change vs veh, MAT2A / RFU, CCT5 / Fold change vs veh, CCT5 / RFU, WDR92 / Fold change vs veh, WDR92 / RFU, CUX1 / Fold change vs veh, CUX1 / RFU, TTC7A / Fold change vs veh, TTC7A / RFU, TMEM135 / Fold change vs veh, TMEM135 / RFU, DEPTOR / Fold change vs veh, DEPTOR / RFU, CPM / Fold change vs veh, CPM / RFU, DNAJB6 / Fold change vs veh, DNAJB6 / RFU, CACNA2D3 / Fold change vs veh, CACNA2D3 / RFU, DTX4 / Fold change vs veh, DTX4 / RFU, TFCP2 / Fold change vs veh, TFCP2 / RFU, GMCL1 /// GMCL1P1 / Fold change vs veh, GMCL1 /// GMCL1P1 / RFU, AEBP2 / Fold change vs veh, AEBP2 / RFU, SNHG1 /// SNORD22 /// SNORD25 /// SNORD26 /// SNORD27 /// SNORD28 /// SNORD29 /// SNORD31 / Fold change vs veh, SNHG1 /// SNORD22 /// SNORD25 /// SNORD26 /// SNORD27 /// SNORD28 /// SNORD29 /// SNORD31 / Fold change (Aza/veh), C12orf56 (ProbeSet 11735607_a_at) / Fold change (ACY-1035/veh), C12orf56 (ProbeSet 11735607_a_at) / Fold change (Aza/veh), FGFR1OP (ProbeSet 11751329_s_at) / Fold change (ACY-1035/veh), FGFR1OP (ProbeSet 11751329_s_at) / Fold change (Aza/veh), VPS36 (ProbeSet 11739960_a_at) / Fold change (ACY-1035/veh), VPS36 (ProbeSet 11739960_a_at) / RFU SYPL1 (11715823_x_at) / Fold change /veh SYPL1 (11715823_x_at) / RFU IGFBP7 (11715501_s_at) / Fold change /veh IGFBP7 (11715501_s_at) / RFU REEP3 (11722064_at) / Fold change /veh REEP3 (11722064_at) / RFU IGLL1 (11728026_x_at) / Fold change /veh IGLL1 (11728026_x_at): dose or concentration left out as unconfirmed.

Each structure is given as a SMILES string.

With `Nc1ncn([C@@H]2O[C@H](CO)[C@@H](O)[C@H]2O)c(=O)n1` [azacitidine], the “Fold change (Aza/veh), FGFR1OP (ProbeSet 11751329_s_at)” value is on record as 0.95.
